What was measured:
[1] = biological target: T1, histamine H3 receptor (Homo sapiens, UniProt Q9Y5N1); assay: Histamine H3 functional antagonist assay (GTPγS, membranes); format: biochemical; details: CHO K1 membranes, [35S]-GTPγS, histamine at EC80; read-out: average pKi (pKb) at H3 (converted)
T1 construct: expressed in transfected cells; host or cells: CHO K1 cells with pSwitch/pGeneH3 (GeneSwitch, mifepristone-induced), clone 3H3; membrane preparation
Summary of the method: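 Membranes came from CHO K1 cells with mifepristone-inducible (10 nM, 18 h) human H3 receptor expression, clone 3H3. Test compounds in DMSO were combined with WGA polystyrene LeadSeeker SPA beads, membranes and GDP.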

[2] = biological target: T2, human H1 receptor (Homo sapiens, UniProt P35367); assay: Histamine H1 functional antagonist assay: determination of functional pKi values (FLIPR); format: cell-based; details: CHO cells expressing human H1 receptor, histamine at EC80, read-out: average pKi (pKb) at H1 (converted)
T2 construct: expressed in transfected cells
T2 sequence (P35367 whole entry): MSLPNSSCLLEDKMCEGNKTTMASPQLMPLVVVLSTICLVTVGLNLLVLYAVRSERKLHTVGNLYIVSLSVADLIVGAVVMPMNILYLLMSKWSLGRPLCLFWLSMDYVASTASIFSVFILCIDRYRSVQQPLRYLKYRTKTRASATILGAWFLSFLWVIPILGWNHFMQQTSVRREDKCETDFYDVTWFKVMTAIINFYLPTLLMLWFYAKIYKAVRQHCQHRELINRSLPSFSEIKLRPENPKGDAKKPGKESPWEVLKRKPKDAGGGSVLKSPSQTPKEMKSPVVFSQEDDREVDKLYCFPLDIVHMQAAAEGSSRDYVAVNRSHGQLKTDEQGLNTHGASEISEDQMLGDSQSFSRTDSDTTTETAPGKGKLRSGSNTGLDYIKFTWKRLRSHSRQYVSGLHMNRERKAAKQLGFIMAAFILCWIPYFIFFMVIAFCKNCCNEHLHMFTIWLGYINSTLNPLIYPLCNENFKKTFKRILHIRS
Summary of the method: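 CHO cells stably expressing human H1 receptor, loaded with Fluo-4 for 60 min, then preincubated with compound 30 min at 37° C in Tyrodes buffer with probenecid, pH 7.40. Histamine added at EC80; suppression of calcium fluorescence on FLIPR gives functional affinity from concentration-effect curves.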

[3] = biological target: T2, human H1 receptor; assay: Histamine H1 functional antagonist assay: antagonist duration; format: cell-based; details: at one or more time points, after washout
Method: The human H1 receptor is cloned using known procedures described in the literature [Biochem. Biophys. Res. Commun., 201(2):894 (1994)]. Chinese hamster ovary (CHO) cells stably expressing the human H1 receptor are generated according to known procedures described in the literature [Br. J. Pharmacol., 117(6):1071 (1996)].
To determine the antagonist duration, cells are cultured overnight in non-coated black-walled clear bottom 96-well tissue culture plates, are washed with PBS and are incubated with a concentration of antagonist chosen to give an approximate DR in the range 30-300. Following the 30 min antagonist incubation period, the cells are washed two or three times with 200 μl of PBS and then 100 μl Tyrodes buffer is added to each well to initiate antagonist dissociation. Following incubation for predetermined times, typically 30-270 min at 37° C., the cells are then washed again with 200 μl PBS and are incubated with 100 μl Tyrodes buffer containing Brilliant Black, probenecid and Fluo-4 for 45 min at 37° C., as described above. After this period, the cells are challenged with histamine in the FLIPR™ as described above. The dose ratio at each time point is used to determine the fractional H1 receptor occupancy by the following equation: fractional receptor occupancy=(DR-1)/DR. The decrease in receptor occupancy over time approximates to a straight line and is analysed by linear regression. The slope of this straight line fit is used as an index of the dissociation rate of the antagonist. The dose ratios for antagonist treated cells and for antagonist treated and washed cells at each time point are used to calculate a relative dose ratio (rel DR) which is also used as an index of antagonist duration. Antagonists with long duration of action produce rel DR values close to 1, and antagonists with short duration of action produce rel DR values that approaches the dose ratio value obtained for antagonist treatment alone.

T1 sequence (Q9Y5N1 whole entry, species assumed): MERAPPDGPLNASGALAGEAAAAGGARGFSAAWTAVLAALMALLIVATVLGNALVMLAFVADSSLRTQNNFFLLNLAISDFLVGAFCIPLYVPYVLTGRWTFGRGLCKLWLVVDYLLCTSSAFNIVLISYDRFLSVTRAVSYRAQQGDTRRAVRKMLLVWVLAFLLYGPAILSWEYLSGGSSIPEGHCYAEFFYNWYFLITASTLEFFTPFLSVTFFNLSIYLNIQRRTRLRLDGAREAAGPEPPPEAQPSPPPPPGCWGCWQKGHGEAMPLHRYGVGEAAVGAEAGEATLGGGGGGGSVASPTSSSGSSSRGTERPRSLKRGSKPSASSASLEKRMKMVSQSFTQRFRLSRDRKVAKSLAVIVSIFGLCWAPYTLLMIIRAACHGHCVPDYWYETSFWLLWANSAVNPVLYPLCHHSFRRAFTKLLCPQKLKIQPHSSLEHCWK

Row | SMILES | Ki [1] [nM] | Ki [2] [nM] | duration of action compared with azelastine [3]
1 | CCCCc1cc(OC2CCN(C[C@H]3CC[C@H](C(=O)N4CCCCC4)CC3)CC2)c2ncccc2c1 [Example 44, 6-Butyl-8-[(1-{[trans-4-(1-piperidinylcarbonyl)cyclohexyl]methyl}-4-piperidinyl)oxy]quinoline] | > 316 | < 10 | longer duration of action than azelastine
2 | CCCCc1cc(OC2CCN(C[C@H]3CC[C@H](C(=O)N(CC)CC)CC3)CC2)c2ncccc2c1 [Example 43, Trans-4-({4-[(6-butyl-8-quinolinyl)oxy]-1-piperidinyl}methyl)-N,N-diethylcyclohexane carboxamide] | > 316 | < 10 | longer duration of action than azelastine
3 | CCCCc1cc(OC2CCN(CCNC(=O)C(C)(C)C)CC2)c2ncccc2c1 [Example 72, N-(2-{4-[(6-butyl-8-quinolinyl)oxy]-1-piperidinyl}ethyl)-2,2-dimethyl propanamide] | > 316 | < 10 | longer duration of action than azelastine

Reference: patent US20100222349A1, “QUINOLINE DERIVATIVES USED TO TREAT INFLAMMATORY AND ALLERGIC DISEASES” (Glaxo Group Limited, priority 2007, published 2010)
